Data on 16 compounds can be found in patent US20250215029A1 (Recludix Pharma, Inc., priority 2022, published 2025).

In general, IC50 refers to the concentration needed to halve the response being measured.

Assay [1] addresses T1, Recombinant STAT3 protein (STAT3 (G127-I722)) (Homo sapiens, UniProt P40763).
T1 construct: Recombinant STAT3 protein (STAT3 (G127-I722))
Kind of assay: STAT3 Fluorescence Polarization (FP) Assay. To be noted: STAT3 (G127-I722) 25 nM, probe 5-FAM-GpYLPQTV-NH2 2 nM, 45-minute incubation; read-out: STAT3 (FP assay IC50 class). The class given is binding. In a few lines: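 Displacement of a 2 nM 5-FAM-labelled pY peptide (GpYLPQTV) from 25 nM recombinant STAT3 (G127-I722) was monitored by fluorescence polarization. Incubation lasted 45 min at room temperature in pH 7.4 HEPES buffer containing 1% DMSO.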

Assay [2] addresses T2, Recombinant STAT6 protein (STAT6 (W123-T658)) (Homo sapiens, UniProt P42226).
T2 construct: Recombinant STAT6 protein (STAT6 (W123-T658))
T2 sequence (P42226 123-658): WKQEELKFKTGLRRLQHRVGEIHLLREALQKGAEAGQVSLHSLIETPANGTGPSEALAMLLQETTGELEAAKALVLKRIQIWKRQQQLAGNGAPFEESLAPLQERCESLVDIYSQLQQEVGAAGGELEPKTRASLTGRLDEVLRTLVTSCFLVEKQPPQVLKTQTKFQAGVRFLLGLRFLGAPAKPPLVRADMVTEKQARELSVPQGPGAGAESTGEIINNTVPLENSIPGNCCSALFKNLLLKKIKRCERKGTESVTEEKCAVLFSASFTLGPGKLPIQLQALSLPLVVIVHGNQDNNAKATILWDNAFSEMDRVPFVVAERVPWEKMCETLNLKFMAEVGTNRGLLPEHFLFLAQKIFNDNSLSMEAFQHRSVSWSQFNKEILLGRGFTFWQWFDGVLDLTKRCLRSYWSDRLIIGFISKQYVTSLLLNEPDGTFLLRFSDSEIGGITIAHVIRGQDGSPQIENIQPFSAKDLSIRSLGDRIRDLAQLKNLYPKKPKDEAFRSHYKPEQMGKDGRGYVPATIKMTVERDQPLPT
Kind of assay: STAT6 Fluorescence Polarization (FP) Assay. It counts as binding. To be noted: STAT6 (W123-T658) 250 nM, probe 5-FAM-Ap[…]-NH2 2 nM, 45-minute incubation; read-out: STAT6 (FP assay IC50 class). In a few lines:
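STAT6 (W123-T658) at 250 nM was mixed with 2 nM 5-FAM-labeled phosphotyrosine peptide probe in HEPES pH 7.4 buffer with NaCl, EDTA, Tween 20 and DTT, then added to serially diluted compounds at 1% DMSO final. Polarization was read after 45 min at room temperature; IC50 came from nonlinear regression of mP versus log concentration.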
Background: In fluorescence polarisation assays a small probe gives low polarisation when free and higher when bound to something large.

T1 sequence (P40763 127-722): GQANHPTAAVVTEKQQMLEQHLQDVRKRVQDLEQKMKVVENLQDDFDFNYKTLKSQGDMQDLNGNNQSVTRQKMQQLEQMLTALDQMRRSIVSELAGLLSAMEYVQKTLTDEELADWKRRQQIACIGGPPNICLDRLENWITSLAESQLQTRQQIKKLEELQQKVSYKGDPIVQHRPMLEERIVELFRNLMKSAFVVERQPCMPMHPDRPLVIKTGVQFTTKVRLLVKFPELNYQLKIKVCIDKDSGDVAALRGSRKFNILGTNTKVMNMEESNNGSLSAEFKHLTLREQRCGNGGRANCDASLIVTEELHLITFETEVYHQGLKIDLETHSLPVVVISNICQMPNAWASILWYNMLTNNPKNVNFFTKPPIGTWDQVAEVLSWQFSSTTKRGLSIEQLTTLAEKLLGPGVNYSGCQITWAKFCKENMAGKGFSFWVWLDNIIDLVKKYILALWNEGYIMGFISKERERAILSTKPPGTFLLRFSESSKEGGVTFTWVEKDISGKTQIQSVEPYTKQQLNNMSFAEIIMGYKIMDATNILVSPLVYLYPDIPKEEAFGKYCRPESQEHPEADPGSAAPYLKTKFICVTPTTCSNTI

For `C[C@H]1C[C@H]2CC[C@@H](C(=O)N3CC(c4cncnc4N4CCC4)C3)N2C(=O)[C@@H](NC(=O)c2cc3cc(CP(=O)(O)O)ccc3s2)C1` [Compound 678, ((2-(((3S,6S,8R,9aR)-3-(3-(4-(azetidin-1-yl)pyrimidin-5-yl)azetidine-1-carbonyl)-8-methyl-5-oxooctahydro-1H-pyrrolo[1,2-a]azepin-6-yl)carbamoyl)benzo [b]thiophen-5-yl)methyl) phosphonic acid], the half-maximal inhibitory concentration (IC50) in assay [1] is < 0.1 µM; in assay [2], 3 to 30 µM.

As for `C[C@H]1COCCN1c1ccncc1C1CN(C(=O)[C@@H]2CC[C@@H]3CCC[C@H](NC(=O)c4cc5cc(CP(=O)(O)O)ccc5s4)C(=O)N32)C1` [Compound 679, ((2-(((3S,6S,9aS)-3-(3-(4-((S)-3-methylmorpholino)pyridin-3-yl)azetidine-1-carbonyl)-5-oxooctahydro-1H-pyrrolo[1,2-a]azepin-6-yl)carbamoyl)benzo [b]thiophen-5-yl)methyl) phosphonic acid], the IC50 in assay [1] was < 0.1 µM; in assay [2] it was 3 to 30 µM.

Turning to `N#CC1CN(c2ccncc2C2CN(C(=O)[C@@H]3CC[C@@H]4CCC[C@H](NC(=O)c5cc6cc(CP(=O)(O)O)ccc6s5)C(=O)N43)C2)C1` [Compound 680, ((2-(((3S,6S,9aS)-3-(3-(4-(3-cyanoazetidin-1-yl)pyridin-3-yl)azetidine-1-carbonyl)-5-oxooctahydro-1H-pyrrolo[1,2-a]azepin-6-yl)carbamoyl)benzo [b]thiophen-5-yl)methyl) phosphonic acid], the 50% inhibitory concentration (IC50) was < 0.1 µM in assay [1] and 3 to 30 µM in assay [2].

Regarding `O=C(N[C@H]1CCC[C@H]2CC[C@@H](C(=O)N3CC(c4cncnc4N4CCC4)C3)N2C1=O)c1cc2cc(CP(=O)(O)O)ccc2s1` [Compound 681, ((2-(((3S,6S,9aS)-3-(3-(4-(azetidin-1-yl)pyrimidin-5-yl)azetidine-1-carbonyl)-5-oxooctahydro-1H-pyrrolo[1,2-a]azepin-6-yl)carbamoyl)benzo [b]thiophen-5-yl)methyl) phosphonic acid], the IC50 in assay [1] was < 0.1 µM; in assay [2], 3 to 30 µM.

On to `COc1c(Cl)cncc1C1CN(C(=O)[C@@H]2CC[C@@H]3CCC[C@H](NC(=O)c4cc5cc(C(F)P(=O)(O)O)ccc5s4)C(=O)N32)C1` (stereo partly drawn) [Compound 682, ((2-(((3S,6S,9aS)-3-(3-(5-chloro-4-methoxypyridin-3-yl)azetidine-1-carbonyl)-5-oxooctahydro-1H-pyrrolo[1,2-a]azepin-6-yl)carbamoyl)benzo [b]thiophen-5-yl)fluoromethyl) phosphonic acid], for which the IC50 in assay [1] lay within 0.1 to 1 µM; in assay [2], 3 to 30 µM.

For `O=C(N[C@H]1CCC[C@H]2CC[C@@H](C(=O)N3CC(c4cnccc4N4C[C@@H]5C[C@H]4CO5)C3)N2C1=O)c1cc2cc(C(F)P(=O)(O)O)ccc2s1` (stereo partly drawn) [Compound 683, ((2-(((3S,6S,9aS)-3-(3-(4-((1S,4S)-2-oxa-5-azabicyclo[2.2.1]heptan-5-yl)pyridin-3-yl)azetidine-1-carbonyl)-5-oxooctahydro-1H-pyrrolo[1,2-a]azepin-6-yl)carbamoyl)benzo [b]thiophen-5-yl)fluoromethyl) phosphonic acid], the values for the 50% inhibitory concentration (IC50) in assay [1] and in assay [2] were < 0.1 µM and 3 to 30 µM, respectively.

Regarding `CO[C@H]1CCN(c2ccncc2C2CN(C(=O)[C@@H]3CC[C@@H]4CCC[C@H](NC(=O)c5cc6cc(CP(=O)(O)O)ccc6s5)C(=O)N43)C2)C1` [Compound 686, ((2-(((3S,6S,9aS)-3-(3-(4-((S)-3-methoxypyrrolidin-1-yl)pyridin-3-yl)azetidine-1-carbonyl)-5-oxooctahydro-1H-pyrrolo[1,2-a]azepin-6-yl)carbamoyl)benzo [b]thiophen-5-yl)methyl) phosphonic acid], the values for the IC50 in assay [1] and in assay [2] were < 0.1 µM and 3 to 30 µM, respectively.

With `O=C(N[C@H]1CCC[C@H]2CC[C@@H](C(=O)N3CC(c4cnccc4N4CC[C@@H](F)C4)C3)N2C1=O)c1cc2cc(CP(=O)(O)O)ccc2s1` [Compound 687, ((2-(((3S,6S,9aS)-3-(3-(4-((R)-3-fluoropyrrolidin-1-yl)pyridin-3-yl)azetidine-1-carbonyl)-5-oxooctahydro-1H-pyrrolo[1,2-a]azepin-6-yl)carbamoyl)benzo [b]thiophen-5-yl)methyl) phosphonic acid], the figures for the IC50 in assay [1] and in assay [2] were < 0.1 µM and 3 to 30 µM, respectively.

`CO[C@@H]1CCN(c2ccncc2C2CN(C(=O)[C@@H]3CC[C@@H]4CCC[C@H](NC(=O)c5cc6cc(CP(=O)(O)O)ccc6s5)C(=O)N43)C2)C1` [Compound 688, ((2-(((3S,6S,9aS)-3-(3-(4-((R)-3-methoxypyrrolidin-1-yl)pyridin-3-yl)azetidine-1-carbonyl)-5-oxooctahydro-1H-pyrrolo[1,2-a]azepin-6-yl)carbamoyl)benzo [b]thiophen-5-yl)methyl) phosphonic acid]: the IC50 in assay [1] is < 0.1 µM; in assay [2], 3 to 30 µM.

`O=C(N[C@H]1CCC[C@H]2CC[C@@H](C(=O)N3CC(c4cnccc4N4CC(C(F)F)C4)C3)N2C1=O)c1cc2cc(CP(=O)(O)O)ccc2s1` [Compound 691, ((2-(((3S,6S,9aS)-3-(3-(4-(3-(difluoromethyl)azetidin-1-yl)pyridin-3-yl)azetidine-1-carbonyl)-5-oxooctahydro-1H-pyrrolo[1,2-a]azepin-6-yl)carbamoyl)benzo [b]thiophen-5-yl)methyl) phosphonic acid]: the IC50 is < 0.1 µM in assay [1] and 3 to 30 µM in assay [2].

For the compound `O=C(N[C@H]1CCC[C@H]2CC[C@@H](C(=O)N3CC(c4cnccc4N4CC(C(F)(F)F)C4)C3)N2C1=O)c1cc2cc(CP(=O)(O)O)ccc2s1` [Compound 692, ((2-(((3S,6S,9aS)-5-oxo-3-(3-(4-(3-(trifluoromethyl)azetidin-1-yl)pyridin-3-yl)azetidine-1-carbonyl)octahydro-1H-pyrrolo[1,2-a]azepin-6-yl)carbamoyl)benzo [b]thiophen-5-yl)methyl) phosphonic acid], the 50% inhibitory concentration (IC50) was < 0.1 µM in assay [1] and 3 to 30 µM in assay [2].

With `CN(C)c1cccnc1C1CN(C(=O)[C@@H]2CC[C@@H]3CCC[C@H](NC(=O)c4cc5cc(C(F)P(=O)(O)O)ccc5s4)C(=O)N32)C1` (stereo partly drawn) [Compound 693, ((2-(((3S,6S,9aS)-3-(3-(3-(dimethylamino)pyridin-2-yl)azetidine-1-carbonyl)-5-oxooctahydro-1H-pyrrolo[1,2-a]azepin-6-yl)carbamoyl)benzo [b]thiophen-5-yl)fluoromethyl) phosphonic acid], the 50% inhibitory concentration (IC50) in assay [1] was 1 to 10 µM; in assay [2], 3 to 30 µM.

In the case of `O=C(N[C@H]1CCC[C@H]2CC[C@@H](C(=O)N3CC(c4cnccc4N4C[C@H]5C[C@@H]4CO5)C3)N2C1=O)c1cc2cc(C(F)P(=O)(O)O)ccc2s1` (stereo partly drawn) [Compound 694, ((2-(((3S,6S,9aS)-3-(3-(4-((1R,4R)-2-oxa-5-azabicyclo[2.2.1]heptan-5-yl)pyridin-3-yl)azetidine-1-carbonyl)-5-oxooctahydro-1H-pyrrolo[1,2-a]azepin-6-yl)carbamoyl)benzo [b]thiophen-5-yl)fluoromethyl) phosphonic acid], the half-maximal inhibitory concentration (IC50) in assay [1] was < 0.1 µM; in assay [2], 0.3 to 3 µM.

Take `O=C(N[C@H]1CCC[C@H]2CC[C@@H](C(=O)N3CC(c4cnccc4OC4CCCC4)C3)N2C1=O)c1cc2cc(C(F)P(=O)(O)O)ccc2s1` (stereo partly drawn) [Compound 695, ((2-(((3S,6S,9aS)-3-(3-(4-(cyclopentyloxy)pyridin-3-yl)azetidine-1-carbonyl)-5-oxooctahydro-1H-pyrrolo[1,2-a]azepin-6-yl)carbamoyl)benzo [b]thiophen-5-yl)fluoromethyl) phosphonic acid]: the half-inhibitory concentration (IC50) in assay [1] is < 0.1 µM; in assay [2] it was 3 to 30 µM.

Turning to `O=C(N[C@H]1CCC[C@H]2CC[C@@H](C(=O)N3CC(C4=CCOCC4)C3)N2C1=O)c1cc2cc(CP(=O)(O)O)ccc2s1` [Compound 697, ((2-(((3S,6S,9aS)-3-(3-(3,6-dihydro-2H-pyran-4-yl)azetidine-1-carbonyl)-5-oxooctahydro-1H-pyrrolo[1,2-a]azepin-6-yl)carbamoyl)benzo [b]thiophen-5-yl)methyl) phosphonic acid], the 50% inhibitory concentration (IC50) in assay [1] is 1 to 10 µM; in assay [2], 3 to 30 µM.

For `O=C(N[C@H]1CCC[C@H]2CC[C@@H](C(=O)N3CC(c4cnccc4Oc4ccccc4)C3)N2C1=O)c1cc2cc(C(F)P(=O)(O)O)ccc2s1` (stereo partly drawn) [Compound 699, (fluoro(2-(((3S,6S,9aS)-5-oxo-3-(3-(4-phenoxypyridin-3-yl)azetidine-1-carbonyl)octahydro-1H-pyrrolo[1,2-a]azepin-6-yl)carbamoyl)benzo [b]thiophen-5-yl)methyl) phosphonic acid], the IC50 in assay [1] is < 0.1 µM; in assay [2], 3 to 30 µM.
